Source: ChEMBL document CHEMBL4732132, “Stereoselective synthesis of novel 2'-(S)-CCG-IV analogues as potent NMDA receptor agonists” (Eur J Med Chem, 2021)
Activity calls are given as the source filed them. The rule behind the calls is not given here.

Assays:
[1] = Agonist activity at recombinant rat GluN1a/GluN2A receptor expressed in Xenopus laevis oocytes assessed as increase in glycine/glutamate-induced channel current at -40 mV holding potential by two-electrode voltage clamp method; format: cell-based, Oocyte
[2] = Agonist activity at recombinant rat GluN1a/GluN2B receptor expressed in Xenopus laevis oocytes assessed as increase in glycine/glutamate-induced channel current at -40 mV holding potential by two-electrode voltage clamp method; format: cell-based, Oocyte
[3] = Agonist activity at recombinant rat GluN1a/GluN2C receptor expressed in Xenopus laevis oocytes assessed as increase in glycine/glutamate-induced channel current at -40 mV holding potential by two-electrode voltage clamp method; format: cell-based, Oocyte
[4] = Agonist activity at recombinant rat GluN1a/GluN2D receptor expressed in Xenopus laevis oocytes assessed as increase in glycine/glutamate-induced channel current at -40 mV holding potential by two-electrode voltage clamp method; format: cell-based, Oocyte
Oocyte [5] = assay: Agonist activity at recombinant rat GluN1a/GluN2A receptor expressed in Xenopus laevis oocytes assessed as increase in glycine/glutamate-induced channel current at -40 mV holding potential by two-electrode voltage clamp method relative to glutamate; format: cell-based
[6] = Agonist activity at recombinant rat GluN1a/GluN2B receptor expressed in Xenopus laevis oocytes assessed as increase in glycine/glutamate-induced channel current at -40 mV holding potential by two-electrode voltage clamp method relative to control; format: cell-based, Oocyte; settings: for Emax: Rattus norvegicus, Oocyte, read-out: Efficacy
Oocyte [7] = assay: Agonist activity at recombinant rat GluN1a/GluN2C receptor expressed in Xenopus laevis oocytes assessed as increase in glycine/glutamate-induced channel current at -40 mV holding potential by two-electrode voltage clamp method relative to control; format: cell-based
[8] = Agonist activity at recombinant rat GluN1a/GluN2D receptor expressed in Xenopus laevis oocytes assessed as increase in glycine/glutamate-induced channel current at -40 mV holding potential by two-electrode voltage clamp method relative to control; format: cell-based, Oocyte; settings: for Emax: Rattus norvegicus, Oocyte, read-out: Efficacy
[9] = Rattus norvegicus, Oocyte, read-out: EC50

SMILES	EC50 [1, 9] [nM]	EC50 [2, 9] [nM]	EC50 [3, 9] [nM]	EC50 [4, 9] [nM]	Efficacy (Oocyte [5]; filed as agonist) [%]	Efficacy (Oocyte [7]; filed as agonist) [%]	EC50 ([1]; oocyte)	EC50 ([2]; oocyte)	EC50 ([3]; oocyte)	EC50 ([4]; oocyte)	Efficacy (Oocyte [5])	Efficacy ([6]; rat, oocyte)	Efficacy (Oocyte [7])	Efficacy ([8]; rat, oocyte)	Emax [6] [%]	Emax [8] [%]
C=CCOC[C@]1(C(=O)O)C[C@H]1[C@H](N)C(=O)O	3700	1500	2600	700	73.9	84.9	–	–	–	–	–	–	–	–	111	98.7
N[C@H](C(=O)O)[C@@H]1C[C@]1(CS)C(=O)O	4800	1000	2500	300	87	86	–	–	–	–	–	–	–	–	103	93
N[C@H](C(=O)O)[C@@H]1C[C@]1(COCc1ccccc1)C(=O)O	–	–	–	–	–	–	Not Active	Not Active	Not Active	Not Active	inactive	Not Active	inactive	Not Active	–	–
CCCC[C@]1(C(=O)O)C[C@H]1[C@H](N)C(=O)O	30000	10000	16000	3300	65	85	–	–	–	–	–	–	–	–	107	94
[N-]=[N+]=NC[C@]1(C(=O)O)C[C@H]1[C@H](N)C(=O)O	4500	900	2700	400	81.7	62.7	–	–	–	–	–	–	–	–	92.6	76.9

More lines, main results first:

EC50 [1, 9] [nM]	EC50 [2, 9] [nM]	EC50 [3, 9] [nM]	EC50 [4, 9] [nM]	Efficacy (Oocyte [5]; filed as agonist) [%]	Efficacy (Oocyte [7]; filed as agonist) [%]	EC50 ([1]; oocyte)	EC50 ([2]; oocyte)	EC50 ([3]; oocyte)	EC50 ([4]; oocyte)	Efficacy (Oocyte [5])	Efficacy ([6]; rat, oocyte)	Efficacy (Oocyte [7])	Efficacy ([8]; rat, oocyte)	SMILES	Emax [6] [%]	Emax [8] [%]
3000	1100	1900	400	91	98.2	–	–	–	–	–	–	–	–	N[C@H](C(=O)O)[C@@H]1C[C@]1(CO)C(=O)O	116	104
260	80	110	30	99	90	–	–	–	–	–	–	–	–	C[C@]1(C(=O)O)C[C@H]1[C@H](N)C(=O)O	123	111
